Measured values: article PMC8126888 (RSC Medicinal Chemistry, 2020)
Like-named read-outs stand apart in the source and are kept apart here.

How the values were obtained:
[1] = system: primary peritoneal mouse macrophages (PMM); settings: for IC50: read-out: PMM IC50; for SI (vs PMM): PMM IC50 / L. infantum IC50
MRC-5SV2 cells = test: Cytotoxicity assay on MRC-5SV2 cells (resazurin)
[2] = system: L. donovani MHOM/ET/67/L82 intracellular amastigotes; settings: read-out: L. donovani MHOM/ET/67/L82 intracellular amastigotes IC50
[3] = system: Leishmania infantum MHOM/MA(BE)/67/ITMAP263 intracellular amastigotes; settings: for IC50: read-out: L. infantum MHOM/MA(BE)/67/ITMAP263 intracellular amastigotes IC50
in vitro [4] = settings: PAMPA
in vitro [5] = settings: mouse, microsomes, pH 7.4, MLM CLint, mouse liver microsomes
[6] = system: Trypanosoma cruzi, Tulahuen CL2, beta-galactosidase strain; test: microbe, parasite or virus in culture; settings: MRC5, read-out: T. cruzi Tulahuen C4 (LacZ) IC50
[7] = system: primary peritoneal mouse macrophages (PMM); test: cells; settings: Macrophage, read-out: PMM IC50
[8] = system: Leishmania infantum MHOM/MA(BE)/67/ITMAP263 intracellular amastigotes; test: microbe, parasite or virus in culture; settings: Macrophage, in Mus musculus
physchem = settings: HPLC, Ascentis Express RP Amide column, pH 7.4, eLogD, experimental
in vitro [9] = settings: human
in vitro [10] = settings: human, microsomes, pH 7.4, HLM CLint, human liver microsomes
[11] = from L. infantum intracellular amastigote IC50
[12] = read-out: L. Inf. pIC50, from L. infantum intracellular amastigote IC50 (converted)
[13] = read-out: L. infantum MHOM/MA(BE)/67/ITMAP263 intracellular amastigotes IC50, intracellular amastigotes

| Structure (SMILES) | IC50 [1] | CC50 (MRC-5SV2 cells) | IC50 [2] | IC50 [3] | L. Inf. pIC50 [3] | SI (vs PMM) [1] | L. Inf. pIC50 [3, 11] | Papp (in vitro [4]) | microsomal CLint at 0.5 μM (in vitro [5]) | IC50 [6] | IC50 [7] | IC50 [8, 12] | IC50 [8, 13] | chromatographic logD (physchem) | CC50 at 3 days (in vitro [9]) | microsomal CLint at 0.5 μM (in vitro [10]) |
| --- | --- | --- | --- | --- | --- | --- | --- | --- | --- | --- | --- | --- | --- | --- | --- | --- |
| COc1ccc(S(=O)(=O)N(C)C)cc1NC(=O)Cn1c(=O)cnc2ccccc21 [Compound Z19025005] | > 32 µM | > 32 µM | > 32 µM | > 32 µM |  |  |  |  |  |  |  |  |  |  |  |  |
| CCN(CC)S(=O)(=O)c1cc(NC(=O)c2[nH]c(C)c(C(=O)OC)c2C)ccc1C [Compound Z26467494] | > 32 µM | 10.9 µM | 12 µM | 16.1 µM | 4.79 |  |  |  |  |  |  |  |  |  |  |  |
| CCOc1ccc(NC(=O)c2[nH]c(C)c(C(=O)OC)c2C)cc1S(=O)(=O)N1CCCC1 [Compound Z29178369] | > 32 µM | > 32 µM | > 32 µM | > 32 µM |  |  |  |  |  |  |  |  |  |  |  |  |
| COc1ccc(S(=O)(=O)N(C)C)cc1NC(=O)CN1C(=O)COc2ccccc21 [Compound Z29560624] | > 32 µM | > 32 µM | > 32 µM | > 32 µM |  |  |  |  |  |  |  |  |  |  |  |  |
| CCOC(=O)c1c(C)[nH]c(C(=O)Nc2cccc(S(=O)(=O)N3CCOCC3)c2)c1C [Compound Z30001211] | > 32 µM | 18.1 µM | > 32 µM | > 32 µM |  |  |  |  |  |  |  |  |  |  |  |  |
| COC(=O)c1c(C)[nH]c(C(=O)Nc2cccc(S(=O)(=O)N3CCCC3)c2)c1C [Compound Z30224758] | > 32 µM | > 32 µM | > 32 µM | > 32 µM |  |  |  |  |  |  |  |  |  |  |  |  |
| CCOC(=O)c1c(C)[nH]c(C(=O)Nc2ccc(Cl)c(S(=O)(=O)N3CCCCC3)c2)c1C [Compound Z30461235] | 16 µM | 2.17 µM | 3.39 µM | 2.99 µM | 5.52 |  |  |  |  |  |  |  |  |  |  |  |
| CCOC(=O)c1c(C)[nH]c(C(=O)NNC(=O)c2cccc(S(=O)(=O)N(CC)CC)c2)c1C [Compound Z30581529] | > 32 µM | > 32 µM | > 32 µM | > 32 µM |  |  |  |  |  |  |  |  |  |  |  |  |
| CC1Cc2ccccc2N1CC(=O)Nc1ccc(Cl)c(S(=O)(=O)N(C)C)c1 (stereo not shown) [Compound Z30956600] | > 32 µM | > 32 µM | > 32 µM | > 32 µM |  |  |  |  |  |  |  |  |  |  |  |  |
| CN(C)S(=O)(=O)c1cccc(NC(=O)CNc2cccc3c2CCCC3)c1 [Compound Z30985744] | > 32 µM | > 32 µM | > 32 µM | > 32 µM |  |  |  |  |  |  |  |  |  |  |  |  |
| CCCCOc1cc(C)c(Cl)cc1S(=O)(=O)NCc1cccnc1 [Compound Z969575790] |  |  | 25.4 µM |  |  | 2 | 4.78 |  |  |  |  |  |  |  |  |  |
| CCCCCOc1cc(C)c(Cl)cc1S(=O)(=O)NCc1ccco1 [Compound Z1172171148] |  |  | 4.76 µM |  |  | 30 | 5.97 |  |  |  |  |  |  |  |  |  |
| CCCOc1cc(C)c(C)cc1S(=O)(=O)NC1CCCC1 [Compound Z1197866122] |  |  | > 32 µM |  |  | 1 |  |  |  |  |  |  |  |  |  |  |
| CCCCOc1cc(C)c(Cl)cc1S(=O)(=O)NCc1cccs1 [Compound Z1198037505] |  |  | 5.38 µM |  |  | 41 | 6.1 |  |  |  |  |  |  |  |  |  |
| COc1ccc(OC)c(S(=O)(=O)N(CCn2nc(C)cc2C)Cc2ccccc2)c1 [DNDI0003367308] |  |  |  |  |  |  |  | 10.9 ×10⁻⁶ cm/s | 3100 µL/min/mg | 8.09 µM | > 64 µM | 6.17 µM | 6.23 µM | 4.1 | 51 µM | 2270 µL/min/mg |
| COc1ccc(S(=O)(=O)N(Cc2ccccc2)Cc2ccccc2)cc1 [DNDI0003367309] |  |  |  |  |  |  |  | 1 ×10⁻⁶ cm/s | 2410 µL/min/mg | > 64 µM | > 64 µM | 45.7 µM | 45.4 µM |  | > 64 µM | 184 µL/min/mg |

| Structure (SMILES) | IC50 [1] | CC50 (MRC-5SV2 cells) | IC50 [2] | IC50 [3] | L. Inf. pIC50 [3] | SI (vs PMM) [1] | L. Inf. pIC50 [3, 11] | Papp (in vitro [4]) | microsomal CLint at 0.5 μM (in vitro [5]) | IC50 [6] | IC50 [7] | IC50 [8, 12] | IC50 [8, 13] | chromatographic logD (physchem) | CC50 at 3 days (in vitro [9]) | microsomal CLint at 0.5 μM (in vitro [10]) |
| --- | --- | --- | --- | --- | --- | --- | --- | --- | --- | --- | --- | --- | --- | --- | --- | --- |
| COc1ccc(OC)c(S(=O)(=O)N(Cc2ccc(F)cc2)Cc2ccccn2)c1 [DNDI0003368394] |  |  |  |  |  |  |  | 60.1 ×10⁻⁶ cm/s | 344 µL/min/mg | 20.9 µM | > 64 µM | 0.977 µM | 0.97 µM | 2.7 | > 64 µM | 151 µL/min/mg |
| CCCCOc1ncccc1S(=O)(=O)NCc1ccc(F)cc1 [DNDI0003368396] |  |  |  |  |  |  |  | 14.9 ×10⁻⁶ cm/s |  | 29.6 µM | > 64 µM | 8.71 µM | 8.73 µM | 3.8 | > 64 µM | 1650 µL/min/mg |
| O=S(=O)(NC(CO)Cc1ccccc1)c1cc(F)ccc1F (stereo not shown) [DNDI0003368459] |  |  |  |  |  |  |  | 10.6 ×10⁻⁶ cm/s | 274 µL/min/mg | > 64 µM | > 64 µM | > 64 µM | > 64 µM | 2.8 | > 64 µM | 42 µL/min/mg |
| COC(=O)[C@H](CO)NS(=O)(=O)c1cc(Cl)ccc1OC [DNDI0003369004] |  |  |  |  |  |  |  | 9.07 ×10⁻⁶ cm/s | 230 µL/min/mg | > 64 µM | > 64 µM | > 64 µM | > 64 µM | 1.8 | > 64 µM | 112 µL/min/mg |
| CCOCCOc1ncccc1S(=O)(=O)NCc1ccc(F)cc1 [DNDI0003369119] |  |  |  |  |  |  |  | 23.8 ×10⁻⁶ cm/s | 1530 µL/min/mg | > 64 µM | > 64 µM | 33.1 µM | 33.3 µM | 3.2 | > 64 µM | 2210 µL/min/mg |
| O=S(=O)(NCc1ccc(F)cc1)c1cccnc1OCc1ccccc1 [DNDI0003369120] |  |  |  |  |  |  |  | 12.8 ×10⁻⁶ cm/s | 2750 µL/min/mg | 12.7 µM | 32 µM | 8.51 µM | 8.42 µM | 4 | 20.2 µM | 2740 µL/min/mg |
| O=S(=O)(NCc1ccc(F)cc1)c1cccnc1NCCN1CCOCC1 [DNDI0003369121] |  |  |  |  |  |  |  | 1.85 ×10⁻⁶ cm/s | 1950 µL/min/mg | > 64 µM | > 64 µM | > 64 µM | > 64 µM | 3.1 | > 64 µM | 1850 µL/min/mg |
| O=S(=O)(c1cc(F)ccc1F)N(Cc1ccccc1)C(CO)CO [DNDI0003369448] |  |  |  |  |  |  |  | 11.2 ×10⁻⁶ cm/s | 97 µL/min/mg | 31.6 µM | > 64 µM | 57.5 µM | 57 µM | 2.9 | > 64 µM | < 23 µL/min/mg |
| O=S(=O)(NC(CO)Cc1ccccc1)c1ccccc1Br (stereo not shown) [DNDI0003369449] |  |  |  |  |  |  |  | 17.4 ×10⁻⁶ cm/s | 1370 µL/min/mg | 33.4 µM | > 64 µM | > 64 µM | > 64 µM | 3 | > 64 µM | 244 µL/min/mg |
| O=S(=O)(c1ccccc1Br)N(Cc1ccccc1)C(CO)Cc1ccccc1 (stereo not shown) [DNDI0003369450] |  |  |  |  |  |  |  | 2.82 ×10⁻⁶ cm/s | 2180 µL/min/mg | 5.54 µM | > 64 µM | > 64 µM | > 64 µM | 4.6 | 21.3 µM | 1560 µL/min/mg |
| COc1ccc(CN2CCOCC2)cc1S(=O)(=O)N(Cc1ccc(F)cc1)Cc1ccc(F)cc1 [DNDI0003370082] |  |  |  |  |  |  |  | 0.74 ×10⁻⁶ cm/s | 3200 µL/min/mg | 1.56 µM | > 64 µM | 0.525 µM | 0.52 µM |  | > 64 µM | 49 µL/min/mg |
| COc1ccc(C#N)cc1S(=O)(=O)N(Cc1ccc(F)cc1)Cc1ccccn1 [DNDI0003370083] |  |  |  |  |  |  |  | 11.9 ×10⁻⁶ cm/s | 1840 µL/min/mg | 28.9 µM | > 64 µM | 3.16 µM | 3.19 µM | 3.6 | > 64 µM | 694 µL/min/mg |
| COc1ncccc1S(=O)(=O)N(Cc1ccc(F)cc1)Cc1ccccn1 [DNDI0003370084] |  |  |  |  |  |  |  | 27.4 ×10⁻⁶ cm/s | 4620 µL/min/mg | 33.6 µM | > 64 µM | 7.41 µM | 7.39 µM | 3.5 | > 64 µM | 696 µL/min/mg |
| COc1ccc(Cl)cc1S(=O)(=O)N(CC(=O)c1ccc(F)cc1)Cc1ccccc1 [DNDI0003371155] |  |  |  |  |  |  |  | 0.24 ×10⁻⁶ cm/s | 1900 µL/min/mg | > 64 µM | 45.2 µM | 41.7 µM | 41.8 µM | 4.8 | > 64 µM |  |
| O=C(CN(Cc1ccccc1)S(=O)(=O)c1cc(F)ccc1F)c1ccc(F)cc1 [DNDI0003371157] |  |  |  |  |  |  |  | 0.83 ×10⁻⁶ cm/s | 1380 µL/min/mg | > 64 µM | > 64 µM | > 64 µM | > 64 µM | 4.6 | > 64 µM | 756 µL/min/mg |
| CN(C)CCOc1ccc(F)cc1S(=O)(=O)N(Cc1ccc(F)cc1)Cc1ccc(F)cc1 [DNDI0003371161] |  |  |  |  |  |  |  | 0.06 ×10⁻⁶ cm/s | 845 µL/min/mg | 2.17 µM | 8 µM | 2.19 µM | 2.19 µM | 4.9 | 7.62 µM | 214 µL/min/mg |
